Measured values: patent US20010009764A1, “Endothelial-derived toxic factor” (priority 1997, published 2001)

How the values were obtained:
[1] = tested on: primary cerebral cortical cultures; assay: Neurotoxicity (LDH release) of AD microvessel-conditioned medium; assay type: cell-based, rat
Procedure: Microvessels stored in liquid nitrogen, were quick-thawed at 37° C. and centrifuged at 2,000×g for 10 min. The vessels were washed 3 times with cold Hank's balanced salt-solution and resuspended in serum-free DMEM (2 ml) containing 1% lactalbumin hydrolysate. Microvessels were allowed to “recover” for 1 h, after which they released little LDH. The microvessels were washed by centrifugation and resuspended at a concentration of 100 μg protein per ml in serum-free DMEM containing 1% lactalbumin hydrolysate. The microvessels were then incubated for variable times (4-24 h) in a CO2 incubator, centrifuged, and the conditioned medium was sterile-filtered through a 0.4 μm filter, and used immediately.
Procedures for primary neuronal cultures prepared from fetal rat brains were previously described (Grammas P, Moore P, Weigel P H, “Production of Neurotoxic Factors by Brain Endothelium in AD”, Ann. NY Acad. Sci., 826, 1997, which is hereby incorporated herein by reference.) Neurons are obtained and cultured from 17 day fetal rats. […] The purity of these cultures was determined by antibody reactivity to neuronal-specific enolase.
Cell death by necrosis was determined by release of cytoplasmic lactate dehydrogenase (LDH) (Grammas et al., “Production Of Neurotoxic Factors By Brain Endothelium In AD”, Ann NY Acad Sci, 826:47-55, 1997). […] The A490 of each well was measured to determine LDH activity. […]

neuronal cultures [2] = assay: Neuronal cytotoxicity (LDH release) of conditioned media from rat brain endothelial cells treated with PKC modulators; assay type: cell-based; settings: for EDTF^BIM release from endothelial cell cultures: treatment with other PKC inhibitors; for cytotoxic response as % of that elicited by BIM: inhibitor 1 μM on endothelial cells, BIM-mediated cytotoxicity = 100%
Procedure: FIG. 8. Specificity of endothelial derived toxic factor EDTF response to Protein Kinase C inhibition. To confirm that production of EDTF in response to BIM (EDTF^BIM) was indeed related to PKC inhibition, the effect of other PKC inhibitors, calphostin (Cal) and stauroporine (S'sporin) as well as the PKC agonist PMA, were examined. Endothelial cell cultures were incubated in serum-free media (control) containing either BIM (1 μM); BIM and PMA (1 μM each); calphostin (1 μM); or staurosporine (1 μM). The media were collected after 24 hours and added to neuronal cultures and cytotoxicity (LDH release) was measured after 24 hours. Data are expressed as a percentage of the BIM-mediated cytotoxicity (100%).
(§1) Cell death by necrosis was determined by release of cytoplasmic lactate dehydrogenase (LDH) (Grammas et al., “Production Of Neurotoxic Factors By Brain Endothelium In AD”, Ann NY Acad Sci, 826:47-55, 1997). Medium (100 μl) from the neuronal cultures was removed, added to a 96-well plate, the chromogenic substrate added, and the plate was incubated at room temperature for 30 min in darkness. The A490 of each well was measured to determine LDH activity. Data (% cytotoxicity) were expressed as a percentage of total LDH released by treatment with 1% Triton X-100 added to the same well. Vascular LDH release, determined for microvessel-containing inserts placed in wells without neuronal cells, was subtracted from each co-culture point. Each point was performed in duplicate.
For the preparation of endothelial-conditioned media, the media were removed and confluent endothelial cell cultures washed with versene and fresh serum-free DMEM containing (unless otherwise indicated) 1 μM of the PKC inhibitor, bisindolylmaleimide (BIM), was added. The conditioned medium was collected, after 8-24 hrs, and centrifuged at 100,000 g to remove debris and suspended cells, and 5% heat-inactivated horse serum was added prior to application of media to neuronal cultures.
Neurons were obtained and cultured from 15-18 day rat embryos by published methods (Dawson V. L., Dawson, T. M., London E. D., Bredt D. S., Snyder S. H., “Nitric Oxide Mediates Glutamate Neurotoxicity in Primary Cortical Cultures”, Proc. Natl. Acad. Sci. USA, 88:6368-6371, 1991, with our modifications: Grammas P, Moore P, Weigel P H, “Production of Neurotoxic Factors by Brain Endothelium in AD”, Ann. NY Acad. Sci., 826, 1997). Cerebral cortices were isolated, dissociated in Brooks-Logan solution (5% phosphate buffered saline, 0.04 M sucrose, 10 mM HEPES, pH 7.5, 0.03 M glucose) by trituration and seeded in polylysine-coated 24 well plates (15), containing DMEM with 5% heat-inactivated horse serum. After five days of culture, the cells were treated with 10 μg of 5-fluoro-2′-deoxyuridine per well and cultures were maintained for an additional 2 to 3 weeks.

[3] = tested on: primary cerebral cortical cultures; assay: Neuronal necrosis by candidate molecules at 4 h; assay type: cell-based, rat; settings: data not shown
Procedure: as §1

neuronal cultures [4] = assay type: cell-based, rat
Procedure: as §1
Neurons were obtained and cultured from 15-18 day rat embryos by published methods (Dawson V. L., Dawson, T. M., London E. D., Bredt D. S., Snyder S. H., “Nitric Oxide Mediates Glutamate Neurotoxicity in Primary Cortical Cultures”, Proc. Natl. Acad. Sci. USA, 88:6368-6371, 1991, with our modifications: Grammas P, Moore P, Weigel P H, “Production of Neurotoxic Factors by Brain Endothelium in AD”, Ann. NY Acad. Sci., 826, 1997). […]

endothelial cultures = assay type: cell-based, rat
Procedure: as §1
Small arterioles from rat brain were isolated, and endothelial cell cultures initiated, as previously published (Diglio C. A., Grammas P., Giacomelli F. and Wiener J., “Rat Cerebral Microvascular Smooth Muscle Cells in Culture”, J. Cell Physiol., 129:131-141, 1986; Diglio C. A., Liu W., Grammas P., Giacomelli F., and Wiener J., “Isolation and Characterization of Cerebral Resistance Vessel Endothelium in Culture”, Tissue and Cell, 25:833-846, 1993). […] Cells (passages 10-15) were maintained in Dulbecco's modified Eagle's medium (DMEM) and 10% fetal calf serum and subcultured using trypsin-versene (0.025%).

Molecule: N=C(NCCC[C@H](N)C(=O)O)N[N+](=O)[O-] [N^GNitro-L-arginine]
- % neurotoxicity of conditioned medium ([1]; AD microvessels with or without preincubation with 10 μM N^GNitro-L-arginine): 69±12%

Molecule: CCCCCCCCCCCCCC(=O)O[C@@H]1[C@@H](C)[C@@]2(O)[C@@H](C=C(CO)C[C@]3(O)C(=O)C(C)=C[C@@H]23)[C@@H]2C(C)(C)[C@]12OC(C)=O [PMA, phorbol myristate acetate]
- reduction of neuronal cytotoxicity (EDTF^BIM release) compared to BIM alone (neuronal cultures [2]; concurrent PMA and BIM, 1 μM each, media collected 24 hours, LDH after 24 hours): approximately 60%

Molecule: C[C@@H]1C[C@@H]([C@H](O)CC2CC(=O)NC(=O)C2)C(=O)[C@@H](C)C1 [cycloheximide]
- decrease in neuronal necrosis ([1]; AD microvessels incubated with cycloheximide 10 μg/ml): 60%

Molecule: CCCCCCCCCCCCC/C=C/[C@@H](O)[C@@H](N)CO [sphingosine]
- EDTF^BIM release from endothelial cell cultures (neuronal cultures [2]): elicited EDTF^BIM release

Molecule: CN[C@@H]1C[C@H]2O[C@@](C)([C@@H]1OC)n1c3ccccc3c3c4c(c5c6ccccc6n2c5c31)C(=O)NC4 [staurosporine]
- cytotoxic response as % of that elicited by BIM (neuronal cultures [2]): 47%

Molecule: amyloid β
- neuronal necrosis at 4 h [3]: little neuronal necrosis

Molecule: bisindolylmaleimide [BIM]
- % cytotoxicity when added directly to neuronal cultures (neuronal cultures [4]): 16%
- % cytotoxicity on endothelial cultures (endothelial cultures): 10%

Molecule: calphostin
- cytotoxic response as % of that elicited by BIM (neuronal cultures [2]): 60%
- EDTF^BIM release from endothelial cell cultures (neuronal cultures [2]): elicited EDTF^BIM release

Molecule: tumor necrosis factor α
- neuronal necrosis at 4 h [3]: little neuronal necrosis
